Measured values from publication PMC7570620, “Synthesis and Evaluation of the Antitumor Activity of Novel 1-(4-Substituted phenyl)-2-ethyl Imidazole Apoptosis Inducers In Vitro” (Molecules, 2020).

What was measured:
[1] = tested on: A549; assay: MTT cell viability assay, A549; type: cell-based; conditions: Homo sapiens, 24 h incubation, mean ± SD, n = 4
Protocol: (§1) The synthesized compounds were subjected to a cytotoxicity assay using the MTT method, as described previously. IC50 is defined as the drug concentration causing a 50% reduction in cell numbers compared to the untreated control. For screening, we evaluated the effects of the compounds on the growth of three cancer cell lines (A549, SGC-7901, and HeLa). In addition, their toxicities were tested using one normal cell line (L-02). The results are the averages of four separate measurements. MTX and 5-FU served as positive controls.
(§2) The three cancer cell lines namely the human lung cancer cell line (A549), human cervical cancer cell line (HeLa), human gastric carcinoma cell line (SGC-7901), and normal liver cell line (L-02) were acquired from the American Type Culture Collection (Manassas, VA, USA). A549 and SGC-7901 cells were routinely cultured in RPMI-1640. In addition, HeLa and L-02 cells were routinely cultured in DMEM. Media was supplemented with 10% fetal bovine serum (FBS). Cells were maintained at subconfluency at 37 °C in humidified air containing 5% CO2. The cells were monitored daily and maintained at 80% cell density. All compounds tested were dissolved in DMSO and then diluted by the culture medium before the treatment of cultured cells.
(§3) Cytotoxicity of the tested samples was measured against each cell line using the 3-(4,5-dimethylthiazol-2-yl)-2,5-diphenyltetrazolium bromide (MTT) cell viability assay (Maher et al., 2019). Cancer cells (A549, SGC-7901, and HeLa) and L-02 normal cells were harvested during the logarithmic growth phase. All cells were seeded in 96-well plates at 10^4 cells/well and were treated with 5-fluorouracil (5-FU), methotrexate (MTX), and the tested samples for 24 h at final concentrations of […]. Next, 20 µL of freshly prepared MTT (Solarbio) solution (5 mg/mL of MTT in PBS) was added to each well, and the cells were cultured for 4 h at 37 °C. The supernatants were removed and resolved with 100 µL of DMSO, and the cells were shocked for 10 min at 37 °C. The optical density of the samples was measured at 490 nm using a microplate luminometer. Cell viability was expressed as the percentage change in absorbance compared to the control values.

[2] = tested on: HeLa; assay: MTT cell viability assay, HeLa; type: cell-based; conditions: Homo sapiens, 24 h incubation, mean ± SD, n = 4
Protocol: as §1, §2, §3

[3] = tested on: SGC-7901; assay: MTT cell viability assay, SGC-7901; type: cell-based; conditions: Homo sapiens, 24 h incubation, mean ± SD, n = 4
Protocol: as §1, §2, §3

[4] = tested on: L-02; assay: MTT cytotoxicity in normal cell line L-02; type: cell-based; conditions: for IC50: Homo sapiens, L02, normal cell line L-02, MTT; for Selectivity Index A549: IC50 in normal cells (L-02)/IC50 in tumor cells (A549); for Selectivity Index HeLa: IC50 in normal cells (L-02)/IC50 in tumor cells (HeLa); for Selectivity Index SGC-7901: IC50 in normal cells (L-02)/IC50 in tumor cells (SGC-7901)
Protocol: as §1
The lack of selectivity between normal and cancer cells is one of the primary limitations of antitumor drugs. We evaluated the cytotoxicity of compounds 4c, 4e–4i, 4l, 4m, and 4q in the normal cell line L-02 to determine the selectivity index (defined as the ratio of cytotoxicity in L-02 cells compared to that in cancer cells). […] Compound 4q yielded satisfactory SI values in HeLa and SGC-7901 cells but an unsatisfactory SI value in A549 cells. […] Compound 4f was selected for the subsequent biological studies.
as §2, §3

SMILES | IC50 [1] [µM] | IC50 [2] [µM] | IC50 [3] [µM] | melting point [°C] | IC50 [4] [µM] | Selectivity Index A549 [4] | Selectivity Index HeLa [4] | Selectivity Index SGC-7901 [4]
CCc1nccn1-c1ccc(NC(=O)CCC(=O)O)cc1 [Compound 3, 3-(4-(2-Ethyl-1H-imidazol-1-yl)phenylcarbamoyl)propanoic Acid] | > 100 | > 100 | > 100 | 163 to 165 | – | – | – | –
CCCNC(=O)CCC(=O)Nc1ccc(-n2ccnc2CC)cc1 [Compound 4a, 1-(4-(3-(Propylcarbamoyl)propionamide)phenyl)-2-ethyl Imidazole] | > 100 | > 100 | > 100 | 128 to 130 | – | – | – | –
CCCCNC(=O)CCC(=O)Nc1ccc(-n2ccnc2CC)cc1 [Compound 4b, 1-(4-(3-(Butylcarbamoyl)propionamide)phenyl)-2-ethyl Imidazol] | > 100 | > 100 | 52.5 ± 3.36 | 112 to 115 | – | – | – | –
CCCCCNC(=O)CCC(=O)Nc1ccc(-n2ccnc2CC)cc1 [Compound 4c, 1-(4-(3-(Amylcarbamoyl)propionamide)phenyl)-2-ethyl Imidazole] | 33.9 ± 2.43 | 28.5 ± 2.51 | 18.5 ± 2.12 | 95 to 98 | 114 ± 8.35 | 3.35 | 3.99 | 6.13
CCc1nccn1-c1ccc(NC(=O)CCC(=O)Nc2ccccc2)cc1 [Compound 4d, 1-(4-(3-(Phenylcarbamoyl)propionamide)phenyl)-2-ethylimidazole] | 86.5 ± 10.6 | > 100 | > 100 | 170 to 173 | – | – | – | –
CCc1nccn1-c1ccc(NC(=O)CCC(=O)Nc2ccc(Cl)cc2)cc1 [Compound 4e, 1-(4-(3-(4-Cl-Phenylcarbamoyl)propionamide)phenyl)-2-ethyl Imidazol] | 43.4 ± 5.42 | 13.3 ± 1.37 | 10.6 ± 1.75 | 184 to 188 | 313 ± 18 | 7.22 | 23.58 | 29.48
CCc1nccn1-c1ccc(NC(=O)CCC(=O)Nc2ccc(F)cc2)cc1 [Compound 4g, 1-(4-(3-(4-F-Phenylcarbamoyl)propionamide)phenyl)-2-ethyl Imidazol] | 13.8 ± 1.92 | 16.5 ± 1.48 | 14 ± 2.29 | 75 to 78 | 42.6 ± 6.37 | 3.10 | 2.58 | 3.04
CCc1nccn1-c1ccc(NC(=O)CCC(=O)Nc2ccc(C)cc2)cc1 [Compound 4h] | 32.2 ± 4.79 | 6.31 ± 0.79 | 13.1 ± 3.02 | 200 to 202 | 290 ± 26.6 | 9.00 | 45.94 | 22.10
CCc1nccn1-c1ccc(NC(=O)CCC(=O)Nc2ccc(OC)cc2)cc1 [Compound 4i, 1-(4-(3-(4-Methoxybenzecarbamoyl)propionamide)phenyl)-2-ethyl Imidazole] | 23.8 ± 7.16 | 7.01 ± 1.3 | 15.5 ± 2.84 | 160 to 163 | 210 ± 25.5 | 8.81 | 29.89 | 13.55
CCc1nccn1-c1ccc(NC(=O)CCC(=O)Nc2ccc(N)cc2)cc1 [Compound 4j, 1-(4-(3-(4-amino-Phenylcarbamoyl)propionamide)phenyl)-2-ethylimidazole] | > 100 | 7.42 ± 0.67 | > 100 | 229 to 231 | – | – | – | –
CCc1nccn1-c1ccc(NC(=O)CCC(=O)NCc2ccccc2)cc1 [Compound 4k, 1-(4-(3-(Benzylcarbamoyl)propionamide)phenyl)-2-ethyl Imidazol] | > 100 | 15.2 ± 1.4 | 20.6 ± 2 | 123 to 126 | – | – | – | –
CCc1nccn1-c1ccc(NC(=O)CCC(=O)NCc2ccc(Cl)cc2)cc1 [Compound 4l, 1-(4-(3-(4-Cl-Benzylcarbamoyl)propionamide)phenyl)-2-ethyl Imidazol] | 11 ± 1.31 | 7.04 ± 1.07 | 8.39 ± 1.11 | 138 to 142 | 114 ± 16.7 | 10.36 | 16.13 | 13.53
CCc1nccn1-c1ccc(NC(=O)CCC(=O)NCc2ccc(Br)cc2)cc1 [Compound 4m, 1-(4-(3-(4-Br-Benzylcarbamoyl)propionamide)phenyl)-2-ethylimidazole] | 28.6 ± 2.51 | 4.07 ± 0.59 | 15.2 ± 1.74 | 143 to 145 | 210 ± 20.3 | 7.35 | 51.59 | 13.85
CCc1nccn1-c1ccc(NC(=O)CCC(=O)NCc2ccc(F)cc2)cc1 [Compound 4n, 1-(4-(3-(4-F-Benzylcarbamoyl)propionamide)phenyl)-2-ethylimidazole] | > 100 | 9.36 ± 1.78 | > 100 | 137 to 140 | – | – | – | –
CCc1nccn1-c1ccc(NC(=O)CCC(=O)NCc2ccc(C)cc2)cc1 [Compound 4o, 1-(4-(3-(4-Methylbenzylcarbamoyl)propionamide)phenyl)-2-ethylimidazole] | 71.3 ± 9.13 | 12.5 ± 0.91 | 11.6 ± 1.59 | 164 to 166 | – | – | – | –
CCc1nccn1-c1ccc(NC(=O)CCC(=O)NCc2ccc(OC)cc2)cc1 [Compound 4p, 1-(4-(3-(4-Methoxybenzylcarbamoyl)propanamide)phenyl)-2-ethylimidazole] | 75.9 ± 4 | 25.5 ± 4.94 | 40.3 ± 4.67 | 168 to 171 | – | – | – | –
CCc1nccn1-c1ccc(NC(=O)CCC(=O)NCc2ccccc2Cl)cc1 [Compound 4q] | 31.1 ± 3.81 | 4.91 ± 0.71 | 2.96 ± 0.29 | 116 to 120 | > 500 | – | – | >168.92
CCc1nccn1-c1ccc(NC(=O)CCC(=O)NCc2ccccn2)cc1 [Compound 4r, 1-(4-(3-(Pyridinemethylcarbamoyl)propionamide)phenyl)-2-ethyl Imidazole] | > 100 | > 100 | 41.9 ± 3.47 | 118 to 121 | – | – | – | –
CCc1nccn1-c1ccc(NC(=O)CCC(=O)Nc2nccs2)cc1 [Compound 4s, 1-(4-(3-(Thiazolcarbamoyl)propionamide)phenyl)-2-ethyl Imidazole] | 24 ± 3.47 | 14.8 ± 2.05 | 56.3 ± 3.24 | 168 to 170 | – | – | – | –
CN(Cc1cnc2nc(N)nc(N)c2n1)c1ccc(C(=O)N[C@@H](CCC(=O)O)C(=O)O)cc1 [MTX, methotrexate, reference compound] | 16 ± 3.2 | 15 ± 2.47 | 13.7 ± 1.29 | – | 42.9 ± 8.07 | 2.68 | 2.85 | 3.14
